In patent US20260000782A1, “ITGB2-MEDIATED DRUG DELIVERY SYSTEM” (TWINPIG BIOLAB INC., priority 2022, published 2026):

What was measured:
M2 macrophages [1] = test: Flow cytometry of FITC-conjugated melittin on M0, M1 and M2 macrophages; type: cell-based, human; conditions: 50 nM FITC-conjugated melittin, 1 hour; THP-1 derived M0, M1, M2 macrophages
Description: To confirm whether the melittin fabricated in Example 1 specifically bound to M2 tumor-associated macrophages (M2 TAMs), a human monocyte cell line THP-1 was differentiated into M0, M1, and M2 macrophages, and treated with FITC-conjugated melittin, and then confirmed by flow cytometry. Specifically, THP-1 cells were treated with 100 nM phorbol 12-myristate 13-acetate (PMA) at 37° C. for 24 hours (M0 macrophages), and the differentiated M0 macrophages were incubated with 100 nM LPS and 20 ng/ml IFN-γ at 37° C. for 72 hours to be differentiated into M1 macrophages (M1), and incubated with 20 ng/ml IL-4 and IL-13 at 37° C. for 72 hours to be differentiated into M2 macrophages (M2). The differentiated cells were treated with 50 nM FITC-conjugated melittin for 1 hour, detected with BD FACS CantoII instruments (BD biosciences, San Jose, CA, USA), and analyzed with FlowJo software (BD biosciences).

M2 macrophages [2] = test: CCK-8 cell viability in M2 macrophages (control, ITGB2 knockdown, ITGB2 antibody pretreatment); type: cell-based, human; conditions: Melittin-dKLA 1 μM, 24 hours
Description: As a cell model used to confirm whether apoptosis was induced through ITGB2 in M2 macrophages, a cell model in which the expression of ITGB2 was suppressed in M2 macrophages was fabricated using Crispr/cas9. Specifically, cells differentiated into M2 macrophages were cultured in an Opti-MEM medium. The Crispr/cas9 was mixed with Cas9 protein V2 (Thermo Fisher scientific) and gRNA (Genscript; ITGB2; Table 7) of a CRISPRMAX™ Reagent kit (Thermo Fisher scientific) and a Cas9 Plus™ Reagent (Thermo Fisher scientific), and a CRISPRMAX™ Reagent was diluted in the Opti-MEM medium, mixed together, and reacted for 5 to 10 minutes, and then added to cells differentiated into M2 macrophages and cultured at 37° C. for 2 to 3 days. Thereafter, the mRNA expression level of ITGB2 was confirmed.
To confirm whether Melittin-dKLA bound to ITGB2 to induce apoptosis in M2 macrophages, Melittin-dKLA (1 μM) was treated for 24 hours to M2 macrophages in which ITGB2 expression was suppressed by Crispr/cas9 fabricated in Example 7-1 above, and cell viability was analyzed using a CCK-8 assay. Specifically, Melittin-dKLA (1 μM) reacted with ITGB2 knockdown macrophages fabricated in Example 7-1 above for 1 hour. After the reaction, the medium was replaced and cultured at 37° C. for 24 hours. […] Absorbance was measured at 450 nm using a microplate reader (Molecular Devices). […]

Row | Molecule | FITC-positive cells (M2 macrophages [1]) | cell viability (M2 macrophages [2]; M2 macrophages in which ITGB2 was knocked down (Crispr/cas9)) | cell viability (M2 macrophages [2]; control M2 macrophages)
1 | CC[C@H](C)[C@H](NC(=O)CN)C(=O)NCC(=O)N[C@@H](C)C(=O)N[C@H](C(=O)N[C@@H](CC(C)C)C(=O)N[C@@H](CCCCN)C(=O)N[C@H](C(=O)N[C@@H](CC(C)C)C(=O)N[C@H](C(=O)N[C@H](C(=O)NCC(=O)N[C@@H](CC(C)C)C(=O)N1CCC[C@H]1C(=O)N[C@@H](C)C(=O)N[C@@H](CC(C)C)C(=O)N[C@H](C(=O)N[C@@H](CO)C(=O)N[C@@H](Cc1c[nH]c2ccccc12)C(=O)N[C@H](C(=O)N[C@@H](CCCCN)C(=O)N[C@@H](CCCNC(=N)N)C(=O)N[C@@H](CCCCN)C(=O)N[C@@H](CCCNC(=N)N)C(=O)N[C@@H](CCC(N)=O)C(=O)N[C@@H](CCC(N)=O)C(N)=O)[C@@H](C)CC)[C@@H](C)CC)[C@@H](C)O)[C@@H](C)O)C(C)C)C(C)C [melittin, Melittin] | significantly increased in M2 macrophages |  | 
2 | Peptide with linker and drug dKLA attached to melittin, SEQ ID NO: 5, GIGAVLKVLTTGLPALISWIKRKRQQ-GGGGS-d[KLAKLAKKLAKLAK] [Melittin-dKLA] |  | decrease in cell viability by Melittin-dKLA was suppressed | significantly reduced
